Laboratory results published in patent EP1614683B1, “Indazole compounds and pharmaceutical compositions for inhibiting protein kinases, and methods for their use” (priority 1999, dated 2001).
Like-named read-outs stand apart in the source and are kept apart here.

Legend:
[1] = tested on: lung cancer cells (line MV522); assay: Cancer cell proliferation (MV522) assay; format: cell-based
Method: The protocol for assessing cellular proliferation in cancer cells is similar to that used for assessments in HUVEC cells. Two thousand lung cancer cells (line MV522, acquired from American Tissue Cultural Collection) were seeded in growth media (RPMI1640 medium supplemented with 2 mM glutamine and 10% FBS). Cells are allowed to attach for 1 day prior to addition of test agents and /or vehicles. Cells are treated simultaneously with the same test agents used in the HUVEC assay. Cellular proliferation is quantified by MTT dye reduction assay 72 hours after exposure to test agents. The total length of the assay is 4 days vs. 5 for HUVEC cells because MV522 cells are not exposed to starvation medium.

in vivo = settings: mouse, plasma, pH 2.3
[2] = tested on: VEGF dependent retinal vascular development; assay: In vivo assay of retinal vascular development in neonatal rats; design: species or system rat
Method: The development of the retinal vascular in rats occurs from postnatal day 1 to postnatal day 14 (P1-P14). […] To assess the ability of specific compounds to inhibit the activity of VEGF in vivo, compounds were formulated in an appropriate vehicle, usually 50% polyethylene glycol, average molecular weight 400 daltons, and 50% solution of 300 mM sucrose in deionized water. […] Six days after the intravitreal injection, the animals were sacrificed and the retinas dissected free from the remaining ocular tissue. […] The individual retinas are then flat-mount onto glass slides and examined to determine the extent of vascularization. […] The amount of vessel regression was used to assess the relative potency of the compounds after in vivo administration.
For more quantitative analysis of regression, images of ADPase-stained, flat-mounted retinas were captured with a digital camera attached to a dissecting microscope. Retinal images were then imported into an image analysis software (Image Pro Plus 4.0, Media Cybernetics, Silver Spring, MD). The software was employed to determine the percentage of the area of the retina that contained stained vessels. This value for the experimental eye was compared to that measured for the vehicle injected, contralateral eye from the same animal. The reduction in the vascular area seen in the eye that received compound as compared to the vehicle-injected eye was then expressed as the "percent regression" for that sample.

[3] = tested on: VEGF dependent retinal neovascularization; assay: Neonatal rat model of retinopathy of prematurity; format: in vivo; settings: Model ROP, intravitreal, vehicle PEG/water 70:30
Method: A second model of VEGF dependent retinal neovascularization was employed to evaluate the activities of this series of compounds. […] The animals are exposed for 24 hours to a concentration of 50% oxygen followed by 24 hours at a concentration of 10% oxygen. This alternating cycle of hyperoxia followed by hypoxia is repeated 7 times after which the animals are removed to room air (P14). Compounds are administered via intravitreal injection upon removal to room air and the animals are sacrificed 6 days later (P20). The isolated retinas are then isolated, stained mounted and analyzed as detail above in the development model. The effectiveness was also graded as is described for the development model.

human FGF-R1 = human FGF-R1 (Homo sapiens, UniProt P11362, C488A/C584S/L457V); assay: FGF-R spectrophotometric assay; format: biochemical; settings: Table 1; compound concentration 1 µM; read-out: FGF-P* (% inhibition)
Method: The spectrophotometric assay was carried out as described above for VEGF-R2, except for the following changes in concentration: FGF-R = 50 nM, ATP = 2 mM, and poly(E4Y1) =15 mM.

LCK tyrosine kinase = LCK tyrosine kinase (Homo sapiens, UniProt P06239, C224D/P223M); assay: LCK spectrophotometric assay; format: biochemical; settings: Table 1; compound concentration 1 µM; read-out: Lck-P* (% inhibition)
Method: The spectrophotometric assay was carried out as described above for VEGF-R2, except for the following changes in concentration: LCK = 60 nM, MgCl2 = 0 mM, poly(E4Y1) = 20 mM.

[4] = target: unphosphorylated VEGF-R2Δ50 (Homo sapiens, UniProt P35968, DEL940-989/E990V); assay: biochemical; settings: read-out: FLVK ** (% inhibition)
in vitro = in vitro ADME, human; settings: human liver microsomes, 5 µM test compound, 37 °C, 2 h
How it was run: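 HLM diluted to 5 mg/mL in 100 mM KPO4, preincubated 10 min at 37 °C with NADPH-regenerating system. Compound (5 µM final) incubated at 37 °C in triplicate, sampled at 0 and 2 h into ice-cold acetonitrile, then LC-MS analysis.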

[5] = tested on: human umbilical vein endothelial cells (HUVEC); assay: HUVEC proliferation assay (VEGF-stimulated, MTT); format: cell-based; settings: Homo sapiens, HUVEC, Table 1
[6] = IP, 25 mg/kg, vehicle PEG400:H2O pH 2.3 30:70
[7] = PO, 50 mg/kg, vehicle PEG400:H2O pH 2.3 30:70
[8] = mouse, in vivo, ip, 25 mg/kg, pH 2.3
[9] = mouse, in vivo, po, 50 mg/kg, pH 2.3
[10] = Model P8, intravitreal, 5 mg/ml, vehicle PEG/water 50:50
[11] = PO, 50 mg/kg, vehicle PEG400:H2O pH 2.3 60:40
[12] = Model P8, intravitreal, 5 mg/ml, vehicle PEG/water 70:30
[13] = + albumin, read-out: HUVEC + albumin IC50

unphosphorylated VEGF-R2Δ50, sequence (P35968 with tags, fused parts or gaps DEL940-989/E990V limits assumed): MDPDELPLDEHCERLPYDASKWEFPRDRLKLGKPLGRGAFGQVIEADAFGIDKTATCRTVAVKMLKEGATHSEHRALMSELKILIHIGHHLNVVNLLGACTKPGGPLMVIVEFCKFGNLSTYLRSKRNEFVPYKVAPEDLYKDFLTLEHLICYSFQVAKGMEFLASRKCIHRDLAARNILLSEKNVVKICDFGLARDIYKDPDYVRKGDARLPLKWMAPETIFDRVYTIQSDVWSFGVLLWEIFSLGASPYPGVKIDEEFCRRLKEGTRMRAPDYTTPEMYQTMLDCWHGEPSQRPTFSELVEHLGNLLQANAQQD
human FGF-R1, sequence (P11362 456-766 L457V/C488A/C584S): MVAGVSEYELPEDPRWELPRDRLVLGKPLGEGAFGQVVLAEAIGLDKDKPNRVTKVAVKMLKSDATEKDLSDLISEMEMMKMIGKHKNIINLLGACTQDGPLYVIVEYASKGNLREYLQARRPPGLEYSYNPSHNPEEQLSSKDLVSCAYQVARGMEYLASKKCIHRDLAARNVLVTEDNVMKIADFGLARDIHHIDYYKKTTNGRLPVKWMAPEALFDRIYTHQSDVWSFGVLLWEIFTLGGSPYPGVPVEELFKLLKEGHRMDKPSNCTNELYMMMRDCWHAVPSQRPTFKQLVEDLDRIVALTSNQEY
LCK tyrosine kinase, sequence (P06239 223-509 P223M/C224D): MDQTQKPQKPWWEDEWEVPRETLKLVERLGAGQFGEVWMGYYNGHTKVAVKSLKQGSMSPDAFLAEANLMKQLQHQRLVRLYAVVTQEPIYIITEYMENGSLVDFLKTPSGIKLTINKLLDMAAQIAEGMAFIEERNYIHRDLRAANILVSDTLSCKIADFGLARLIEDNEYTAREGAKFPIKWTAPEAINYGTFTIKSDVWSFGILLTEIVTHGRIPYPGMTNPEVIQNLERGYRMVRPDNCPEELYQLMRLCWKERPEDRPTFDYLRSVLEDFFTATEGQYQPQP

| SMILES | AUC (in vivo; ip, 25 mg/kg) | AUC (in vivo; po, 50 mg/kg) | T1/2 [6] | T1/2 [7] | % Inhibition [2, 10] | inhibition at 1 µM (human FGF-R1) | inhibition at 1 µM (LCK tyrosine kinase) | IC50 [5, 13] | also measured |
| --- | --- | --- | --- | --- | --- | --- | --- | --- | --- |
| COc1cc(-c2ccc3c(-c4ccc5ccccc5c4)n[nH]c3c2)ccc1O [2(a), 3-(Naphthalen-2-yl)-6-(3-methoxy-4-hydroxy-phenyl)-1H-indazole] |  |  |  |  |  |  |  |  | IC50 ([1]; MV522, read-out: MV522 IC50 (µM)): 0.58 µM |
| CCn1nc(C)cc1C(=O)Nc1cccc(C(=O)c2ccc3c(/C=C/c4ccccn4)n[nH]c3c2)c1 [41 (a)] | 92.8 µg·h/mL | 49 µg·h/mL | 2.9 h | 3.4 h |  |  |  |  | % Inhibition ([2]; Model P8, intravitreal, 1 mg/ml, vehicle PEG/water 50:50): 4% |
| C/C=C/C(=O)Nc1cccc(C(=O)c2ccc3c(/C=C/c4ccccn4)n[nH]c3c2)c1 [41 (c)] |  |  |  |  |  |  |  |  | % Inhibition ([3]; 1 mg/ml): 16%; % Inhibition ([3]; 10 mg/ml): 54%; Initial Evaluation ([3]; 10 mg/ml): +++ (three pluses give to retinas with near total regression (approximately 75% or greater)); AUCleast [8]: 3.397 µg·h/mL; T1/2 [8]: 1.7 h; AUCleast [9]: 3.182 µg·h/mL; T1/2 [9]: 2.6 h; Initial Evaluation [2, 10]: ++ (two pluses being judged to be approximately 25-75 % regression) |
| CC(=O)c1ccc(C(=O)Nc2cccc(C(=O)c3ccc4c(/C=C/c5ccccn5)n[nH]c4c3)c2)s1 [41 (e)] | 4.9 µg·h/mL | 0.302 µg·h/mL |  |  | 8% |  |  |  | T1/2 (IP, 25 mg/kg, vehicle PEG400:H2O pH 2.3 60:40): 1.6 h; Cmin (7 hr conc.) [11]: 7 ng/mL; T1/2 [11]: 1.6 h |
| CC1CC1C(=O)Nc1cccc(C(=O)c2ccc3c(/C=C/c4ccccn4)n[nH]c3c2)c1 (centres unmarked) [41 (h)] | 26.9 µg·h/mL | 4.68 µg·h/mL | 1.2 h | 0.7 h |  |  |  |  | Cmin (7 hr conc.) [7]: 7 ng/mL; % Inhibition [2, 12]: 0% |
| O=C(c1cccc(NC(=O)c2ccc(Cl)s2)c1)c1ccc2c(/C=C/c3ccccn3)n[nH]c2c1 [41 (o)] |  | 14.7 µg·h/mL |  | 1.7 h | 2% |  |  |  |  |
| Cc1cc(C(=O)Nc2cccc(C(=O)c3ccc4c(/C=C/c5ccccn5)n[nH]c4c3)c2)n(C)n1 [41 (p)] | 4.15 µg·h/mL |  | 5.5 h |  | 35% |  |  |  |  |
| O=C(Nc1cccc(C(=O)c2ccc3c(-c4nc5cccnc5[nH]4)n[nH]c3c2)c1)c1ccccc1 [Example 42(d), 6-(3-benzamidobenzoyl)-3-(3H-imidazo[4,5-b]pyridin-2-yl)-1H-indazole] |  |  |  |  |  |  |  |  | IC50 ([1]; MV522, Table 1, read-out: MV522 IC50): > 10 µM |
| Cc1cc(C(=O)Nc2cc(Nc3ccc4c(/C=C/c5ccccn5)n[nH]c4c3)ccc2C)n(C)n1 [Example 49(b), 6-[N-(3-((1,3-Dimethyl-1H-pyrazol-5-yl)carboxamido)-4-methylphenyl)amino]-3-E-[2-(pyridin-2-yl)ethenyl]-1H-indazole] |  |  |  |  | 5% | 80% | 9% |  | inhibition at 0.05 µM [4]: 98% |
| O=C(Nc1cccc(Oc2ccc3c(/C=C/c4ccccn4)n[nH]c3c2)c1)c1ccccc1 [Reference Example 31(a), 6-[3-benzamidophenoxy]-3-E-[2-(Pyridin-2-yl)ethenyl]-1H-indazole] | 47.5 µg·h/mL | 40.9 µg·h/mL | 2.4 h | 1.6 h |  | 95% | 77% | 10 nM | % remain (HLM, 2 h) (in vitro): 58%; IC50 ([5]; read-out: HUVEC IC50): 0.7 nM; % Inhibition [2, 12]: 46% |
| Cc1cc(C(=O)Nc2cccc(Oc3ccc4c(/C=C/c5ccccn5)n[nH]c4c3)c2)nn1C [Reference Example 31(b), 6-[3-((1,5-Dimethyl-1H-pyrazol-3-yl)carboxamido)phenoxy]-3-E-[2-(pyridin-2-yl)ethenyl)-1H-indazole] | > 7.04 µg·h/mL | 2.07 µg·h/mL | 1.7 h | 1.0 h | 32% | 97% | 66% | 5.6 nM |  |
| O=C(Nc1cccc(Oc2ccc3c(/C=C/c4c[nH]cn4)n[nH]c3c2)c1)c1ccccc1 [Reference Example 32(a), 6-[3-benzamidophenoxy]-3-E-[2-(1H-imidazol-4-yl)ethenyl]-1H-indazole] | > 20.6 µg·h/mL | 4.19 µg·h/mL |  |  |  | 96% | 86% | 4.5 nM | IC50 ([5]; read-out: HUVEC IC50): 0.16 nM; % Inhibition ([2]; Model P9, intravitreal, 5 mg/ml, vehicle PEG/water 50:50): 20% |
| CCCNC(=O)c1ccccc1Sc1ccc2c(/C=C/c3ccccn3)n[nH]c2c1 [Reference Example 35(a), 6-[2-(n-Propylcarbamoyl)phenylsulfanyl]-3-E-[2-(pyridin-2-yl)ethenyl]-1H-indazole] |  |  |  |  | 4% | 59% | 12% | 2.1 nM | % remain (HLM, 2 h) (in vitro): 33%; inhibition at 0.05 µM [4]: 76% |
| O=C(NC1CCC1)c1ccccc1Sc1ccc2c(/C=C/c3ccccn3)n[nH]c2c1 [Reference Example 35(c), 6-[2-(Cyclobutylcarbamoyl)phenylsulfanyl]-3-E-[2-(pyridin-2-yl)ethenyl]-1H-indazole] |  |  |  |  | 0% | 42% | 11% | 6.3 nM | % remain (HLM, 2 h) (in vitro): 17%; inhibition at 0.05 µM [4]: 76% |
| O=C(NCC1CC1)c1ccccc1Sc1ccc2c(/C=C/c3ccccn3)n[nH]c2c1 [Reference Example 35(v), 6-[2-(Cyclopropylmethyl-carbamoyl)phenylsulfanyl]-3-E-[2-(pyridin-2-yl)ethenyl]-1H-indazole] |  |  |  |  | 20% | 59% | 11% | 22 nM | % remain (HLM, 2 h) (in vitro): 26%; inhibition at 0.05 µM [4]: 72% |
